The record followed here is BindingDB's records for doi:10.1021/jm00099a027 (Smithkline Beecham Pharmaceuticals, 1992).

Bridge positions count the residues as written; N and C are the ends. Square brackets hold non-standard residues; d marks the D form. Peptide text beside a SMILES is read from it. NMeR = CN[C@@H](CCCNC(=N)N)C(=O)O

The experiment in a line: Inhibition of ADP-induced platelet aggregation in canine platelet-rich plasma.

With `CC(=O)N(C)C(CCCNC(=N)N)C(=O)NCC1=CC(CC(=O)O)C(=O)N(c2ccccc2)CC1` (configuration not stated), the 50% inhibitory concentration (IC50) stood at 720 nM. The molecule `CC(=O)N[C@H]1CSSC[C@@H](C(N)=O)NC(=O)[C@H](CC(=O)O)NC(=O)CNC(=O)[C@H](CCCN=C(N)N)N(C)C1=O` [SKF-106760] (Ac-C[NMeR]GDC-NH2; disulfide 1-5) came in with an IC50 of 360 nM.
